According to patent publication US12473304B2, “Heterocyclic PAD4 inhibitors” (BRISTOL-MYERS SQUIBB COMPANY, priority 2020, dated 2025):

The compounds below were run against human PAD4 (hPAD4) (Homo sapiens (Human), UniProt Q9UM07) (assay: RFMS Human PAD4 Functional Assay 1). Conditions: RFMS assay 1; 5 nM hPAD4, 250 μM BAEE substrate, 50 μM calcium, 37° C.
Format: biochemical
Summary of the method: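 Citrullination product read by RapidFire triple-quad MRM against a modified-citrulline internal standard, after TCA stop and 30 min phenyl glyoxal step at 37 °C. Reaction: 250 μM BAEE, 5 nM human PAD4, 90 min at 37 °C, pH 7.5 HEPES buffer with 50 μM calcium and 5 μM TPEN, following 30 min compound–enzyme preincubation (max 50 μM).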

Chain of human PAD4 (hPAD4) (Q9UM07 whole entry): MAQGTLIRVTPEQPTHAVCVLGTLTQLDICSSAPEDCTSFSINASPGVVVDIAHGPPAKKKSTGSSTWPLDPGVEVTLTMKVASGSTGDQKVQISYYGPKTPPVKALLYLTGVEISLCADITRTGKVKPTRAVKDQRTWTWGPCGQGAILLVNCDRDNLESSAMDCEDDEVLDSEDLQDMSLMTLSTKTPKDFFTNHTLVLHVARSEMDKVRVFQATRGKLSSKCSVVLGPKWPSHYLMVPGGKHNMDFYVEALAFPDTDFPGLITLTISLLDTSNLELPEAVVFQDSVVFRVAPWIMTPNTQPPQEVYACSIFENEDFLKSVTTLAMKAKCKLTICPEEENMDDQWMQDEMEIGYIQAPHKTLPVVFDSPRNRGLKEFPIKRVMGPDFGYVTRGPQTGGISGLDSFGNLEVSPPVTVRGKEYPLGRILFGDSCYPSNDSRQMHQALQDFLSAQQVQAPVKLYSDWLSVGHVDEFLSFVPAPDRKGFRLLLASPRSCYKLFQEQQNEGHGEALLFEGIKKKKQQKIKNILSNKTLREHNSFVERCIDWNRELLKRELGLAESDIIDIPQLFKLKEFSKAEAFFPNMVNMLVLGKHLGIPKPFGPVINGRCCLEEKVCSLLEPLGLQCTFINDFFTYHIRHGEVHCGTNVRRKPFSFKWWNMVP

| SMILES | IC50 [nM] |
| --- | --- |
| COC1CN(c2ccc3cc(-c4nn5cc(C(=O)N6CC7CCC6[C@@H]7N)ccc5c4C)n(CC4CC4)c3n2)C1 (stereo partly drawn) [Example 79, ((7R)-7-Amino-2-azabicyclo[2.2.1]heptan-2-yl)(2-(1-(cyclopropylmethyl)-6-(3-methoxyazetidin-1-yl)-1H-pyrrolo[2,3-b]pyridin-2-yl)-3-methylpyrazolo[1,5-a]pyridin-6-yl)methanone] | 212 |
| Cc1c(-c2cc3cccnc3n2CC2CC2)nn2cc(C(=O)N3C[C@H](N)C[C@@H](F)C3)ccc12 [Example 80, ((3R,5R)-3-Amino-5-fluoropiperidin-1-yl)(2-(1-(cyclopropylmethyl)-1H-pyrrolo[2,3-b]pyridin-2-yl)-3-methylpyrazolo[1,5-a]pyridin-6-yl)methanone] | 1610 |
| Cc1c(-c2cc3ccc(-c4ccc5c(c4)CNC5=O)nc3n2CC2CC2)nn2cc(C(=O)N3C[C@H](N)C[C@@H](F)C3)ccc12 [Example 81, 5-(2-(6-((3R,5R)-3-Amino-5-fluoropiperidine-1-carbonyl)-3-methylpyrazolo[1,5-a]pyridin-2-yl)-1-(cyclopropylmethyl)-1H-pyrrolo[2,3-b]pyridin-6-yl)isoindolin-1-one] | 384 |
| Cc1ccc2cc(-c3nn4cc(C(=O)N5C[C@H](N)C[C@@H](F)C5)ccc4c3C)n(CC3CC3)c2n1 [Example 82, ((3R,5R)-3-Amino-5-fluoropiperidin-1-yl)(2-(1-(cyclopropylmethyl)-6-methyl-1H-pyrrolo[2,3-b]pyridin-2-yl)-3-methylpyrazolo[1,5-a]pyridin-6-yl)methanone] | 368 |
| Cc1c(-c2cc3ccc(-c4ccc5c(c4)C(=O)NC5)nc3n2CC2CC2)nn2cc(C(=O)N3C[C@H](N)C[C@@H](F)C3)ccc12 [Example 83, 6-(2-(6-((3R,5R)-3-Amino-5-fluoropiperidine-1-carbonyl)-3-methylpyrazolo[1,5-a]pyridin-2-yl)-1-(cyclopropylmethyl)-1H-pyrrolo[2,3-b]pyridin-6-yl)isoindolin-1-one] | 384 |
| Cc1c(-c2cc3ccc(-c4ccc(C(N)=O)c(F)c4)nc3n2CC2CC2)nn2cc(C(=O)N3C[C@H](N)C[C@@H](F)C3)ccc12 [Example 84, 4-(2-(6-((3R,5R)-3-Amino-5-fluoropiperidine-1-carbonyl)-3-methylpyrazolo[1,5-a]pyridin-2-yl)-1-(cyclopropylmethyl)-1H-pyrrolo[2,3-b]pyridin-6-yl)-2-fluorobenzamide] | 610 |
| Cc1c(-c2cc3ccc(-c4ccc(C(N)=O)c(Cl)c4)nc3n2CC2CC2)nn2cc(C(=O)N3C[C@H](N)C[C@@H](F)C3)ccc12 [Example 85, 4-(2-(6-((3R,5R)-3-Amino-5-fluoropiperidine-1-carbonyl)-3-methylpyrazolo[1,5-a]pyridin-2-yl)-1-(cyclopropylmethyl)-1H-pyrrolo[2,3-b]pyridin-6-yl)-2-chlorobenzamide] | 327 |
| Cc1c(-c2cc3ccc(-c4cccc(O)c4F)nc3n2CC2CC2)nn2cc(C(=O)N3C[C@H](N)C[C@@H](F)C3)ccc12 [Example 86, ((3R,5R)-3-Amino-5-fluoropiperidin-1-yl)(2-(1-(cyclopropylmethyl)-6-(2-fluoro-3-hydroxyphenyl)-1H-pyrrolo[2,3-b]pyridin-2-yl)-3-methylpyrazolo[1,5-a]pyridin-6-yl)methanone] | 219 |
| COC1CCN(c2ccc3cc(-c4nn5cc(C(=O)N6C[C@H](N)C[C@@H](F)C6)ccc5c4C)n(CC4CC4)c3n2)CC1 [Example 87, ((3R,5R)-3-Amino-5-fluoropiperidin-1-yl)(2-(1-(cyclopropylmethyl)-6-(4-methoxypiperidin-1-yl)-1H-pyrrolo[2,3-b]pyridin-2-yl)-3-methylpyrazolo[1,5-a]pyridin-6-yl)methanone] | 2320 |
| Cc1c(-c2cc3ccc(N4CCC(O)CC4)nc3n2CC2CC2)nn2cc(C(=O)N3C[C@H](N)C[C@@H](F)C3)ccc12 [Example 88, ((3R,5R)-3-Amino-5-fluoropiperidin-1-yl)(2-(1-(cyclopropylmethyl)-6-(4-hydroxypiperidin-1-yl)-1H-pyrrolo[2,3-b]pyridin-2-yl)-3-methylpyrazolo[1,5-a]pyridin-6-yl)methanone] | 1680 |
| Cc1c(-c2cc3ccc(-c4ccc5c(c4)C(=O)NC5)cc3n2CC2CC2)nn2cc(C(=O)N3CC4CCC3[C@@H]4N)ccc12 (stereo partly drawn) [Example 89, 6-(2-(6-((7R)-7-Amino-2-azabicyclo[2.2.1]heptane-2-carbonyl)-3-methylpyrazolo[1,5-a]pyridin-2-yl)-1-(cyclopropylmethyl)-1H-indol-6-yl)isoindolin-1-one] | 48 |
| Cc1c(-c2cc3ccc(-c4ccc5c(c4)CNC5=O)cc3n2CC2CC2)nn2cc(C(=O)N3CC4CCC3[C@@H]4N)ccc12 (stereo partly drawn) [Example 90, 5-(2-(6-((7R)-7-Amino-2-azabicyclo[2.2.1]heptane-2-carbonyl)-3-methylpyrazolo[1,5-a]pyridin-2-yl)-1-(cyclopropylmethyl)-1H-indol-6-yl)isoindolin-1-one] | 12 |

Results, then the compound that gave them:

| IC50 [nM] | SMILES |
| --- | --- |
| 602 | Cc1c(-c2cc3ccc(N4CC(F)(CO)C4)cc3n2CC2CC2)nn2cc(C(=O)N3CC4CCC3[C@@H]4N)ccc12 (stereo partly drawn) [Example 91, ((7R)-7-Amino-2-azabicyclo[2.2.1]heptan-2-yl)(2-(1-(cyclopropylmethyl)-6-(3-fluoro-3-(hydroxymethyl)azetidin-1-yl)-1H-indol-2-yl)-3-methylpyrazolo[1,5-a]pyridin-6-yl)methanone] |
| 672 | Cc1c(-c2cc3ccc(-c4cccc(O)c4F)cc3n2CC2CC2)nn2cc(C(=O)N3C[C@H](N)C[C@@H](F)C3)ccc12 [Example 92, ((3R,5R)-3-Amino-5-fluoropiperidin-1-yl)(2-(1-(cyclopropylmethyl)-6-(2-fluoro-3-hydroxyphenyl)-1H-indol-2-yl)-3-methylpyrazolo[1,5-a]pyridin-6-yl)methanone] |
| 220 | Cc1c(-c2cc3ccc(-c4ccc(C(N)=O)c(F)c4)cc3n2CC2CC2)nn2cc(C(=O)N3C[C@H](N)C[C@@H](F)C3)ccc12 [Example 93, 4-(2-(6-((3R,5R)-3-Amino-5-fluoropiperidine-1-carbonyl)-3-methylpyrazolo[1,5-a]pyridin-2-yl)-1-(cyclopropylmethyl)-1H-indol-6-yl)-2-fluorobenzamide] |
| 934 | Cc1c(-c2cc3ccc(-c4ccc(O)c(F)c4)cc3n2CC2CC2)nn2cc(C(=O)N3C[C@H](N)C[C@@H](F)C3)ccc12 [Example 94, ((3R,5R)-3-Amino-5-fluoropiperidin-1-yl)(2-(1-(cyclopropylmethyl)-6-(3-fluoro-4-hydroxyphenyl)-1H-indol-2-yl)-3-methylpyrazolo[l,5-a]pyridin-6-yl)methanone] |
| 133 | Cc1c(-c2cc3ccc(-c4ccc5c(c4)CNC5=O)cc3n2CC2CC2)nn2cc(C(=O)N3C[C@H](N)C[C@@H](F)C3)ccc12 [Example 95, 5-(2-(6-((3R,5R)-3-Amino-5-fluoropiperidine-1-carbonyl)-3-methylpyrazolo[1,5-a]pyridin-2-yl)-1-(cyclopropylmethyl)-1H-indol-6-yl)isoindolin-1-one] |
| 588 | Cc1c(-c2cc3ccc(-c4ccc5c(c4)C(=O)NC5)cc3n2CC2CC2)nn2cc(C(=O)N3C[C@H](N)C[C@@H](F)C3)ccc12 [Example 96, 6-(2-(6-((3R,5R)-3-Amino-5-fluoropiperidine-1-carbonyl)-3-methylpyrazolo[1,5-a]pyridin-2-yl)-1-(cyclopropylmethyl)-1H-indol-6-yl)isoindolin-1-one] |
| 14 | COc1cc(C(=O)N2C[C@H](N)C[C@@H](F)C2)cn2nc(-c3cc4ccc(C(C)(C)O)cc4n3CC3CC3)c(C)c12 [Example 98, ((3R,5R)-3-Amino-5-fluoropiperidin-1-yl)(2-(1-(cyclopropylmethyl)-6-(2-hydroxypropan-2-yl)-1H-indol-2-yl)-4-methoxy-3-methylpyrazolo[1,5-a]pyridin-6-yl)methanone] |
| 307 | COc1cc(C(=O)N2C[C@H](N)C[C@@H](F)C2)cn2nc(-c3cc4ccc(C(C)(O)C(F)(F)F)cc4n3CC3CC3)c(C)c12 (stereo partly drawn) [Example 99, ((3R,5R)-3-Amino-5-fluoropiperidin-1-yl)(2-(1-(cyclopropylmethyl)-6-(1,1,1-trifluoro-2-hydroxypropan-2-yl)-1H-indol-2-yl)-4-methoxy-3-methylpyrazolo[1,5-a]pyridin-6-yl)methanone] |
| 36 | Cc1c(-c2cc3ccc(C(C)(C)O)cc3n2CC2CC2)nn2cc(C(=O)N3CC4CCC3[C@@H]4N)ccc12 (stereo partly drawn) [Example 100, ((7R)-7-Amino-2-azabicyclo[2.2.1]heptan-2-yl)(2-(1-(cyclopropylmethyl)-6-(2-hydroxypropan-2-yl)-1H-indol-2-yl)-3-methylpyrazolo[1,5-a]pyridin-6-yl)methanone] |
| 11 | Cc1c(-c2cc3ccc(C(C)(O)C(F)(F)F)cc3n2CC2CC2)nn2cc(C(=O)N3CC4CCC3[C@@H]4N)ccc12 (stereo partly drawn) [Example 101, ((7R)-7-Amino-2-azabicyclo[2.2.1]heptan-2-yl)(2-(1-(cyclopropylmethyl)-6-(1,1,1-trifluoro-2-hydroxypropan-2-yl)-1H-indol-2-yl)-3-methylpyrazolo[1,5-a]pyridin-6-yl)methanone] |
| 12 | Cc1c(-c2cc3ccc(C(C)(C)O)nc3n2CC2CC2)nn2cc(C(=O)N3CC4CCC3[C@@H]4N)ccc12 (stereo partly drawn) [Example 102, ((7R)-7-Amino-2-azabicyclo[2.2.1]heptan-2-yl)(2-(1-(cyclopropylmethyl)-6-(2-hydroxypropan-2-yl)-1H-pyrrolo[2,3-b]pyridin-2-yl)-3-methylpyrazolo[1,5-a]pyridin-6-yl)methanone] |
| 34 | Cc1c(-c2cc3ccc(C(C)(O)C(F)(F)F)nc3n2CC2CC2)nn2cc(C(=O)N3CC4CCC3[C@@H]4N)ccc12 (stereo partly drawn) [Example 103, ((7R)-7-Amino-2-azabicyclo[2.2.1]heptan-2-yl)(2-(1-(cyclopropylmethyl)-6-(1,1,1-trifluoro-2-hydroxypropan-2-yl)-1H-pyrrolo[2,3-b]pyridin-2-yl)-3-methylpyrazolo[1,5-a]pyridin-6-yl)methanone] |
